{"source": "patent US20250041286A1", "about": "“CANCER TREATMENT USING KETOTIFEN IN COMBINATION WITH A CHECKPOINT INHIBITOR” (Materia Therapeutics Inc., priority 2021, published 2025)", "key": {"[1]": {"system": "K7M2wt tumors", "assay": "Immunofluorescence of T cells (CD3, CD8/Ki67, CD3/CD31) in tumor sections", "format": "in vivo, mouse", "conditions": "Ki67/CD8 staining; concluding statement", "description": "Immunofluorescence staining for Ki67 and CD8, performed as described above, confirmed the activation status of recruited CD8^+ T cells in osteosarcoma tumors (K7M2wt tumors) (FIGS. 9C-9D). K7M2wt tissue sections were then stained for pimonidazole adducts as a measure of hypoxia formation.\nImmunofluorescence staining of CD3 and CD31 endothelial marker was used to assess the presence of T cells in the proximity of tumor vessel capillaries. PFA-fixed tissue cryosections of K7M2wt osteosarcoma tumors were incubated with primary rabbit anti-CD31 (Abcam, 1:50) and rat anti-CD3 (BioLegend, 1:50) overnight at 4° C. CD31 signal was detected with Alexa Fluor-488 anti-rabbit IgG (H+L) (Invitrogen, 1:400) and CD3 signal with Alexa Fluor-647 anti-rat IgG (H+L) (Invitrogen, 1:400) secondary antibodies. Cell nuclei were stained with DAPI. Tumor associated T cell to vessel content was determined by the overlapping CD31 and CD3 area fraction normalized to DAPI staining."}, "[2]": {"system": "K7M2wt tumors", "assay": "Hypoxia study, pimonidazole adduct immunofluorescence", "format": "in vivo, mouse", "conditions": "10 mg/kg ketotifen", "method": "Mice bearing orthotopic MCA205 or K7M2wt sarcoma tumors were injected (intraperitoneal) with 60 mg/kg of pimonidazole HCl at 2 hours prior to tumor removal. Tumors were removed, washed twice in 1×PBS for 10 minutes and incubated with 4% PFA overnight at 4° C. The fixative was aspirated, and samples were washed twice in 1×PBS for 10 min. Tissue samples were dehydrated in successive ethanol steps and xylene followed by paraffin embedding. Serial sections ([…]) of paraffin-embedded tissues were produced using the microtome (Accu-Cut SRM 200 Rotary Microtome, SAKURA), flattened out into water, and allowed to dry overnight at 37° C. Sections were then deparaffinized and rehydrated as routinely processed for histology. Slides were microwaved in TriSodium Citrate, blocked in serum solution, and incubated with mouse anti-pimonidazole RED 549 conjugate antibody (HP7-100Kit, 1:100) overnight at 4° C. The next day slides were washed, nuclei were stained with DAPI, and tissue sections were mounted. Immunofluorescence images of the slides were taken (FIG. 1A), and hypoxic area fraction across different treatment groups was normalized to DAPI staining.\nImmunofluorescence staining for Ki67 and CD8, performed as described above, confirmed the activation status of recruited CD8^+ T cells in osteosarcoma tumors (K7M2wt tumors) (FIGS. 9C-9D). […]"}, "[3]": {"system": "MCA205 tumors", "assay": "Tumor-opening experiment (residual solid stress)", "format": "in vivo, mouse", "conditions": "5 mg/kg and 10 mg/kg ketotifen", "method": "Tumor-opening experiments were performed as an indicator of the amount of residual stress contained within the tissue, using the values of opening after cutting."}, "[4]": {"system": "MCA205 tumors", "assay": "Tumor growth (volume, mass) under daily ketotifen, fibrosarcoma model", "format": "in vivo, mouse", "conditions": "ketotifen 1, 5, 10 and 25 mg/kg i.p. once a day for 8 days", "method": "Two mouse models of distinct sarcoma subtypes, fibrosarcoma (MCA205 cells) and osteosarcoma (K7M2wt cells), were used in this study.\nMCA205, a mouse fibrosarcoma cell line (SCC173, Millipore), was cultured in RPMI-1640 expansion medium containing 2 mM L-glutamine, 1 mM sodium pyruvate, 10% fetal bovine serum, 1× non-essential amino acids (TMS-001-C, Sigma), 1% antibiotics (A5955, Sigma), and 1×β-mercaptoethanol. K7M2wt, a mouse osteosarcoma cell line (CRL2836™, ATCC®), was cultured in DMEM expansion medium supplemented with 10% FBS and 1% antibiotics. All cells were maintained at 37° C./5% CO2.\nA fibrosarcoma syngeneic tumor model was generated by subcutaneous implantation of 2.5×10^5 MCA205 cells in 50 μL of serum-free medium into the flank of 6-week old C57BL/6 female mice. A osteosarcoma syngeneic tumor model was generated by implanting K7M2wt tumor chunks into the fat pad of 6-week old BALB/c female mice. […]\nEach treatment group of 4-7 mice received subtherapeutic doses of ketotifen (1, 5, 10 and 25 mg/kg) for a period of 8 days. […] Planar dimensions (x, y) of tumor were monitored every 2-3 days using a digital caliper and tumor volume was estimated from the volume of an ellipsoid and assuming that the third dimension, z, is equal to sqrt(x y)."}, "[5]": {"system": "murine MC/9 MCs", "assay": "MC/9 - NIH3T3 transwell co-culture, mast cell degranulation by β-hexosaminidase release", "format": "cell-based", "method": "Given that both MCs and fibroblasts are present in the TME, the consequences of MC activation on myofibroblasts was explored using a co-culture assay in which murine MC/9 MCs and NIH3T3 myofibroblasts were separated by a transwell chamber with micropores that only allowed chemical communication (FIG. 13A). In this system, degranulation efficiency was determined by measuring the concentration of β-hexosaminidase (β-hex) in the supernatant. MC degranulation was induced through exposure to compound 48/80 (C48/80), which binds to the MRGPRB2 receptor (the orthologue of the human G-protein-coupled receptor MRGPRX2). […] Co-cultures treated with a vehicle control and Triton X-100 were used as internal assay control to evaluate background and maximum β-hex release, respectively. Transforming growth factor (TGF)-β1 was used as a fibroblast activator due to its capacity to induce a myofibroblast phenotype of the NIH3T3 cells. MC/9 cells were cultivated with NIH3T3 cells for 24 hours and then treated with either ketotifen or TGFβ for additional 24 hours in low serum medium, followed by a 30 minute sensitization with C48/80."}, "[6]": {"assay": "Mouse body, thymus and spleen weight at conclusion of study", "format": "in vivo", "conditions": "highest dose (of 1, 5, 10, 25 mg/kg), i.p. once a day for 8 days", "method": "Each treatment group of 4-7 mice received subtherapeutic doses of ketotifen (1, 5, 10 and 25 mg/kg) for a period of 8 days. Ketotifen fumarate salt was dissolved in sterilized normal saline (0.9% NaCl in ddH2O, w/v). Ketotifen 1 mg/kg, 5 mg/kg, 10 mg/kg, 25 mg/kg or equal volume of diluent (control group) was administered by intraperitoneal injection (i.p.) once a day for 8 days. Ketotifen treatment for MCA205 and K7M2wt tumor models started when the average tumor volume reached 60 mm^3 and 150 mm^3, respectively, and completed at 600 mm^3. At study endpoint, primary tumors were surgically excised and stored in 1×PBS at −80° C. until further processing. Planar dimensions (x, y) of tumor were monitored every 2-3 days using a digital caliper and tumor volume was estimated from the volume of an ellipsoid and assuming that the third dimension, z, is equal to sqrt(x y).\nFollowing treatment, tumor growth (tumor volume and mass, see, FIGS. 2A and 2C for MCA205 tumors, and FIGS. 2B and 2D for K7M2wt tumors) was evaluated in the mice of each sarcoma group."}, "[7]": {"system": "K7M2wt tumors", "assay": "Mast cell tryptase staining of tumors", "format": "in vivo, mouse", "conditions": "10 mg/kg ketotifen", "description": "(§1) Finally, to confirm the effect of ketotifen on MC inactivation, ketotifen-treated tumors were stained for tryptase, a serine protease unique to MCs with a role in myofibroblast proliferation and collagen synthesis."}, "[8]": {"system": "MCA205 tumors", "assay": "Mast cell tryptase staining of tumors", "format": "in vivo, mouse", "conditions": "10 mg/kg ketotifen", "description": "as §1"}}, "note": "Entries after “also recorded” stand apart in the source; their conditions may differ.", "data": [{"molecule": "CN1CCC(=C2c3ccccc3CC(=O)c3sccc32)CC1", "note": "[ketotifen]", "values": [{"measurement": "fraction of CD8+ T cells proliferating", "setting": "[1]", "value": "double"}, {"measurement": "pimonidazole positive fraction (hypoxia)", "setting": "[2]", "value": "significantly reduced; also recorded: alleviated hypoxia"}, {"measurement": "tumor opening after cutting (solid stress)", "setting": "[3]", "value": "smaller opening"}, {"measurement": "antitumor effect (tumor volume and mass)", "setting": "[4]", "value": "No subtherepautic dose of ketotifen exhibited an antitumor effect"}, {"measurement": "MC degranulation (β-hex release)", "setting": "[5]; 24 hours treatment, then 30 minute sensitization with C48/80", "value": "inhibits degranulation in a dose-dependent manner"}, {"measurement": "reduction in β-hex release compared to C48/80 treatment", "setting": "[5]; ketotifen 100 μg/ml", "value": "more than 50%"}, {"measurement": "splenomegaly", "setting": "[6]", "value": "caused splenomegaly"}, {"measurement": "tryptase levels", "setting": "[7]", "value": "reduced"}, {"measurement": "tryptase levels", "setting": "[8]", "value": "reduced"}]}]}
